Patent US9227930B2, “Aminoindane derivatives, pharmaceutical compositions containing them, and their use in therapy” (ABBOTT LABORATORIES, priority 2010, dated 2016)
Counter-ions that a name gives are not always drawn.

target: human GlyT1c transporter (Homo sapiens (Human), UniProt P48067); test: Radioligand binding assay using recombinant CHO cell membranes expressing human GlyT1; conditions: read-out: radioligand binding Kiapp
Method: 2. Radioligand binding assays using recombinant CHO cell membranes expressing human GlyT1:
Radioligand binding to human GlyT1c transporter-expressing membranes was determined as described in Mezler et al., Molecular Pharmacology 74:1705-1715, 2008.

human GlyT1c transporter, sequence (P48067 whole entry): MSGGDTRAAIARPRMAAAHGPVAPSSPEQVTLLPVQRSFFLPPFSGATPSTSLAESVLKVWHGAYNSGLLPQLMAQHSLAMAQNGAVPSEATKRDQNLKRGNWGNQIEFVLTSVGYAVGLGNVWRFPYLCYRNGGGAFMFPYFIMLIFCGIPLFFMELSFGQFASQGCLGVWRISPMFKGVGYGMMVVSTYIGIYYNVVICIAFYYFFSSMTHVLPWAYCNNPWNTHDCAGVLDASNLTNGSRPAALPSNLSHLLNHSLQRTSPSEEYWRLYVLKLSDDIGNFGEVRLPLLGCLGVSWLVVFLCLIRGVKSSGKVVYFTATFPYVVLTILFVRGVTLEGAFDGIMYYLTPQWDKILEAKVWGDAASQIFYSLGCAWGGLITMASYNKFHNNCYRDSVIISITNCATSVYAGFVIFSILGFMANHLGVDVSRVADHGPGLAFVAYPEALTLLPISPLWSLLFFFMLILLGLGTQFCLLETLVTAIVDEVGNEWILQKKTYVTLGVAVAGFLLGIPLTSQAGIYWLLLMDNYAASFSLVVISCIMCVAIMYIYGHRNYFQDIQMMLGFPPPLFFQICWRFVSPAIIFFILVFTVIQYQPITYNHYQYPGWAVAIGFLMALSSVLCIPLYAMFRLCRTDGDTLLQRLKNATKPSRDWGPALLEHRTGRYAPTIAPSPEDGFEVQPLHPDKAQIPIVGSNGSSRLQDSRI

Ki | Compound
≤ 100 nM | CN[C@@H]1Cc2cc(F)c(OCCNS(=O)(=O)c3cn(C)cn3)cc2[C@@H]1Cc1ccccc1 (relative stereo) [Example 200, cis-N-(2-(3-Benzyl-6-fluoro-2-(methylamino)-2,3-dihydro-1H-inden-5-yloxy)ethyl)-1-methyl-1H-imidazole-4-sulfonamide]
≤ 100 nM | Cn1cnc(S(=O)(=O)NCCOc2cc3c(cc2F)C[C@@H](N2CCC2)[C@H]3Cc2ccccc2)c1 (relative stereo) [Example 201, cis-N-(2-{[2-(Azetidin-1-yl)-3-benzyl-6-fluoro-2,3-dihydro-1H-inden-5-yl]oxy}ethyl)-1-methyl-1H-imidazole-4-sulfonamide]
≤ 100 nM | Cn1cnc(S(=O)(=O)NCCOc2cc3c(cc2F)C[C@@H](N2CC(C)(O)C2)[C@H]3Cc2ccccc2)c1 (relative stereo) [Example 206, cis-N-(2-{[3-Benzyl-6-fluoro-2-(3-hydroxy-3-methylazetidin-1-yl)-2,3-dihydro-1H-inden-5-yl]oxy}ethyl)-1-methyl-1H-imidazole-4-sulfonamide]
≤ 10 nM | CN[C@@H]1Cc2cc(F)c(CNS(=O)(=O)c3cn(C)cn3)cc2[C@@H]1Cc1ccccc1 (relative stereo) [Example 209a, cis-N-{[3-Benzyl-6-fluoro-2-(methylamino)-2,3-dihydro-1H-inden-5-yl]methyl}-1-methyl-1H-imidazole-4-sulfonamide]
≤ 10 nM | CN[C@@H]1Cc2cc(F)c(CNS(=O)(=O)c3cn(C)cn3)cc2[C@H]1Cc1ccccc1 (relative stereo) [Example 209b, trans-N-{[3-benzyl-6-fluoro-2-(methylamino)-2,3-dihydro-1H-inden-5-yl]methyl}-1-methyl-1H-imidazole-4-sulfonamide]
≤ 1000 nM | CCOC(=O)NC1Cc2ccc(OCCNS(=O)(=O)c3cn(C)cn3)cc2C1Cc1ccccc1 (stereo not drawn) [Example 195, Ethyl 1-benzyl-6-(2-(1-methyl-1H-imidazole-4-sulfonamido)ethoxy)-2,3-dihydro-1H-inden-2-ylcarbamate]
≤ 10000 nM | CCOC(=O)NC1Cc2ccc(OCCNS(=O)(=O)c3nccn3C)cc2C1Cc1ccccc1 (stereo not drawn) [Example 196, Ethyl 1-benzyl-6-(2-(1-methyl-1H-imidazole-2-sulfonamido)ethoxy)-2,3-dihydro-1H-inden-2-ylcarbamate]
≤ 100 nM | Cn1cnc(S(=O)(=O)NCCOc2ccc3c(c2)C(Cc2ccccc2)C(N)C3)c1 (stereo not drawn) [Example 197, N-{2-[(2-Amino-3-benzyl-2,3-dihydro-1H-inden-5-yl)oxy]ethyl}-1-methyl-1H-imidazole-4-sulfonamide hydrochloride]
≤ 10000 nM | Cn1ccnc1S(=O)(=O)NCCOc1ccc2c(c1)C(Cc1ccccc1)C(N)C2 (stereo not drawn) [Example 198, N-(2-(2-Amino-3-benzyl-2,3-dihydro-1H-inden-5-yloxy)ethyl)-1-methyl-1H-imidazole-2-sulfonamide hydrochloride]
≤ 10 nM | CNC1Cc2ccc(OCCNS(=O)(=O)c3cn(C)cn3)cc2C1Cc1ccccc1 (stereo not drawn) [Example 199, N-(2-(3-Benzyl-2-(methylamino)-2,3-dihydro-1H-inden-5-yloxy)ethyl)-1-methyl-1H-imidazole-4-sulfonamide]
≤ 10 nM | Cn1cnc(S(=O)(=O)NCCOc2ccc3c(c2)C(Cc2ccccc2)C(N2CCC2)C3)c1 (stereo not drawn) [Example 202, N-(2-(2-(Azetidin-1-yl)-3-benzyl-2,3-dihydro-1H-inden-5-yloxy)ethyl)-1-methyl-1H-imidazole-4-sulfonamide]
≤ 100 nM | CC1CN(C2Cc3cc(F)c(OCCNS(=O)(=O)c4cn(C)cn4)cc3C2Cc2ccccc2)C1 (stereo not drawn) [Example 203, N-(2-(3-Benzyl-6-fluoro-2-(3-methylazetidin-1-yl)-2,3-dihydro-1H-inden-5-yloxy)ethyl)-1-methyl-1H-imidazole-4-sulfonamide]
≤ 100 nM | CC1CN(C2Cc3ccc(OCCNS(=O)(=O)c4cn(C)cn4)cc3C2Cc2ccccc2)C1 (stereo not drawn) [Example 204, N-(2-(3-Benzyl-2-(3-methylazetidin-1-yl)-2,3-dihydro-1H-inden-5-yloxy)ethyl)-1-methyl-1H-imidazole-4-sulfonamide]
≤ 100 nM | Cn1cnc(S(=O)(=O)NCCOc2ccc3c(c2)C(Cc2ccccc2)C(N2CC(C)(C)C2)C3)c1 (stereo not drawn) [Example 205, N-(2-{[3-Benzyl-2-(3,3-dimethylazetidin-1-yl)-2,3-dihydro-1H-inden-5-yl]oxy}ethyl)-1-methyl-1H-imidazole-4-sulfonamide]
≤ 1000 nM | CN(CCOc1cc2c(cc1F)CC(N1CC(C)(O)C1)C2Cc1ccccc1)S(=O)(=O)c1cn(C)cn1 (stereo not drawn) [Example 207, N-(2-(3-Benzyl-6-fluoro-2-(3-hydroxy-3-methylazetidin-1-yl)-2,3-dihydro-1H-inden-5-yloxy)ethyl)-N,1-dimethyl-1H-imidazole-4-sulfonamide]
